Each structure is given as a SMILES string. Calls of active or inactive are those of the source.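 The calls were made as follows: active = mean IC50 below 20 µM in each of the two panels, so potent in both; inactive = the rest.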

IC50 data for 35 compounds are collected here from PubChem BioAssay AID651650 (Sanford-Burnham Center for Chemical Genomics, 2012).

The target of the assay is Neuropilin-1 (Homo sapiens) (UniProt O14786). Briefly: blockers of CendR peptide binding to NRP-1 – biochemical, FP and AlphaScreen panel, dose response (AID 651650). The note with it: NRP-1 b1b2 / RPARPAR peptide binding, FP or AlphaScreen.
Setting [1] is: AlphaScreen, run 1, individual panel run IC50.
Setting [2] is: FP, run 1, individual panel run IC50.
Where [3] appears, read: FP, run 2, individual panel run IC50.

Neuropilin-1 (Homo sapiens), sequence (O14786 whole entry, looked up): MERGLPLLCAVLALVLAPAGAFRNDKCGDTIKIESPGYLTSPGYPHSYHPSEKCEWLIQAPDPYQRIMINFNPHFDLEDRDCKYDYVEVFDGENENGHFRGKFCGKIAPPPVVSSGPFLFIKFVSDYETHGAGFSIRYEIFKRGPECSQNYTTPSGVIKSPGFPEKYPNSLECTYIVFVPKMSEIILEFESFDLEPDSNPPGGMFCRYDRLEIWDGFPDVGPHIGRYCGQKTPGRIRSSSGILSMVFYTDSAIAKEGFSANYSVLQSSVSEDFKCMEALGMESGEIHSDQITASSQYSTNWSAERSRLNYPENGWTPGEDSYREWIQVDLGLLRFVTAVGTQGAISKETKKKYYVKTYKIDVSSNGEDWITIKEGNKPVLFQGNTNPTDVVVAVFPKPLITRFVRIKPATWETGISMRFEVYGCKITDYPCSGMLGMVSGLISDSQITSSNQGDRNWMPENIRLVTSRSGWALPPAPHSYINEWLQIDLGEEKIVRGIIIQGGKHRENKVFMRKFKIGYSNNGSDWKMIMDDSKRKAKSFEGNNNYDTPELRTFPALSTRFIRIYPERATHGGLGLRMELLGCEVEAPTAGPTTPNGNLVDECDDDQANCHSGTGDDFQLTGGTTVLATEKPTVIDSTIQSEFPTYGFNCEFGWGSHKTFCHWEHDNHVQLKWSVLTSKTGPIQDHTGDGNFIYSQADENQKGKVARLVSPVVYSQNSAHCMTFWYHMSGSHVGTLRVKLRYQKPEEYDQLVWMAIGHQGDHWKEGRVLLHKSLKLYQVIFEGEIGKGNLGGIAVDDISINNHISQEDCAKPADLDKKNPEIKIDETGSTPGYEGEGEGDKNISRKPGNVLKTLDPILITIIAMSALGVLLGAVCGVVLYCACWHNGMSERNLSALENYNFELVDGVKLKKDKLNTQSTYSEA

For the compound `CC1(C)S[C@@H]2[C@H](NC(=O)COc3ccccc3)C(=O)N2C1C(=O)OCc1ccccc1` (stereo not given in full), the IC50 is, setting by setting: (AlphaScreen, mean of runs) > 100 µM (inactive); under setting [1], > 100 µM; (FP, mean of runs) > 95 µM (inactive); under setting [2], > 95 µM; under setting [3], > 95 µM.
As to `Cc1ccsc1C(=O)N1CCCC(CO)(Cc2ccccc2F)C1` (stereo not given), the IC50 reads like this: (AlphaScreen, mean of runs) > 100 µM (inactive); under setting [1], > 100 µM; (FP, mean of runs) > 95 µM (inactive); under setting [2], > 95 µM; under setting [3], > 95 µM.
Turning to `COc1ccc(/C=N/NC(=O)c2cc(C(C)(C)C)[nH]n2)cc1COc1ccc(F)cc1F`, the IC50 runs as follows: (AlphaScreen, mean of runs) > 100 µM (inactive); under setting [1], > 100 µM; (FP, mean of runs) > 95 µM (inactive); under setting [2], > 95 µM; under setting [3], > 95 µM.
Take `CCc1ccc(OC(=O)CN2C(=O)c3ccccc3C2=O)cc1`: the IC50 entry (AlphaScreen, mean of runs) was “inactive”. For the same compound, the IC50 by setting is: under setting [1], 32 µM; (FP, mean of runs) > 95 µM (inactive); under setting [2], > 95 µM; under setting [3], > 95 µM.
For the compound `O=C1CSC(c2cn(-c3ccccc3)nc2-c2cccs2)N1CC1CCCO1` (stereo not given), the IC50 entry (AlphaScreen, mean of runs) is “inactive”. In addition, the IC50 reads like this: under setting [1], 44.4 µM; (FP, mean of runs) > 95 µM (inactive); under setting [2], > 95 µM; under setting [3], > 95 µM.
On to `CCOc1ccc(N2C(=O)CC(N3CCN(c4ccc(Cl)cc4)CC3)C2=O)cc1` (stereo not given), for which the IC50 entry (AlphaScreen, mean of runs) was “inactive”. The IC50 is, setting by setting: under setting [1], 22.2 µM; (FP, mean of runs) > 95 µM (inactive); under setting [2], > 95 µM; under setting [3], > 95 µM.
With `CCOC(=O)C1(Cc2cccc(F)c2)CCN(Cc2ccon2)CC1`, the IC50 runs as follows: (AlphaScreen, mean of runs) 9.02 µM; under setting [1], 9.02 µM; (FP, mean of runs) > 95 µM (inactive); under setting [2], > 95 µM; under setting [3], > 95 µM.
Turning to `Cc1ccc(Nc2c(-c3ccccc3O)nc3ncccn23)cc1`, the IC50 by setting is: (AlphaScreen, mean of runs) > 100 µM (inactive); under setting [1], > 100 µM; (FP, mean of runs) > 95 µM (inactive); under setting [2], > 95 µM; under setting [3], > 95 µM.
Take `CCC1CCCCN1CCCNC(=O)C1CCCN(S(=O)(=O)N2CC(C)CC(C)C2)C1` (stereo not given): the IC50 was 6.29 µM (AlphaScreen, mean of runs); 6.29 µM under setting [1]; > 95 µM (inactive) (FP, mean of runs); > 95 µM under setting [2]; > 95 µM under setting [3].
For the compound `Cc1c(NP(=O)(C(C)(C)C)C(C)(C)C)c(=O)n(-c2ccccc2)n1C`, the IC50 runs as follows: (AlphaScreen, mean of runs) > 100 µM (inactive); under setting [1], > 100 µM; (FP, mean of runs) > 95 µM (inactive); under setting [2], > 95 µM; under setting [3], > 95 µM.
On to `Cc1ccc(C2(O)CCN3CCCCC32)cc1` (stereo not given), for which the IC50 was > 100 µM (inactive) (AlphaScreen, mean of runs); > 100 µM under setting [1]; > 95 µM (inactive) (FP, mean of runs); > 95 µM under setting [2]; > 95 µM under setting [3].
As to `CN(Cc1ccccc1)C(=O)c1nc[nH]c1C(=O)N1CCN(C(=O)OC(C)(C)C)CC1`, the IC50 runs as follows: (AlphaScreen, mean of runs) > 100 µM (inactive); under setting [1], > 100 µM; (FP, mean of runs) > 95 µM (inactive); under setting [2], > 95 µM; under setting [3], > 95 µM.
In the case of `COC(=O)C1=C(c2ccc(F)cc2OCc2ccccc2)C[C@@H]2CC[C@H]1N2C(=O)NCCNC(C)=O`, the IC50 by setting is: (AlphaScreen, mean of runs) 9.37 µM; under setting [1], 9.37 µM; (FP, mean of runs) > 95 µM (inactive); under setting [2], > 95 µM; under setting [3], > 95 µM.
In the case of `O=C(/C=C/c1ccccc1)c1ccccn1`, the IC50 (AlphaScreen, mean of runs) was > 100 µM (inactive); the IC50 under setting [1] was > 100 µM; the IC50 (FP, mean of runs) is > 95 µM (inactive); the 50% inhibitory concentration (IC50) under setting [2] is > 95 µM; the IC50 under setting [3] was > 95 µM.
For `CCn1c(N)c(C(=O)NCc2cccnc2)sc1=S`, the IC50 reads like this: (AlphaScreen, mean of runs) 13 µM; under setting [1], 13 µM; under setting [2], > 95 µM; under setting [3], 30.1 µM. The IC50 result (FP, mean of runs) was “inactive”.
Turning to `Cc1ccc(NNS(=O)(=O)c2ccc(C)cc2)cc1`, the IC50 by setting is: (AlphaScreen, mean of runs) > 100 µM (inactive); under setting [1], > 100 µM; (FP, mean of runs) > 95 µM (inactive); under setting [2], > 95 µM; under setting [3], > 95 µM.
On to `O=S(=O)(c1cc(Cl)cc(Cl)c1)N1Cc2cc(-c3ccccc3)ccc2-n2nncc2C1`, for which the IC50 (AlphaScreen, mean of runs) is > 100 µM (inactive); the IC50 under setting [1] is > 100 µM; the IC50 (FP, mean of runs) was > 95 µM (inactive); the IC50 under setting [2] is > 95 µM; the half-inhibitory concentration (IC50) under setting [3] is > 95 µM.
Regarding `COC(=O)c1ccn(C(=O)c2ccc(Cl)cc2)n1`, the IC50 was > 100 µM (inactive) (AlphaScreen, mean of runs); > 100 µM under setting [1]; > 95 µM (inactive) (FP, mean of runs); > 95 µM under setting [2]; > 95 µM under setting [3].
In the case of `Cc1ccc(C)c(-n2c(SCC(=O)NC(C(=O)O)C(C)C)nnc2-c2cccc(Cl)c2)c1` (stereo not given), the IC50 is, setting by setting: (AlphaScreen, mean of runs) > 100 µM (inactive); under setting [1], > 100 µM; (FP, mean of runs) > 95 µM (inactive); under setting [2], > 95 µM; under setting [3], > 95 µM.
As to `OCCC1CCCCN1CC(O)COCc1ccc(Cl)cc1` (stereo not given), the IC50 reads like this: (AlphaScreen, mean of runs) > 100 µM (inactive); under setting [1], > 100 µM; (FP, mean of runs) > 95 µM (inactive); under setting [2], > 95 µM; under setting [3], > 95 µM.
As for `OCC1OC(n2cnc3c(/C=C(\O)c4ccccc4)ncnc32)C(O)C1O` (stereo not given), the IC50 reads like this: (AlphaScreen, mean of runs) > 100 µM (inactive); under setting [1], > 100 µM; (FP, mean of runs) > 95 µM (inactive); under setting [2], > 95 µM; under setting [3], > 95 µM.
For `C=C(C)COc1ccc(-c2[nH]ncc2-c2ccccc2)c(O)c1`, the IC50 by setting is: (AlphaScreen, mean of runs) > 100 µM (inactive); under setting [1], > 100 µM; (FP, mean of runs) > 95 µM (inactive); under setting [2], > 95 µM; under setting [3], > 95 µM.
Turning to `NC(=O)C(c1ccc(Cl)cc1Cl)c1ncc(C(F)(F)F)cc1Cl` (stereo not given), the IC50 reads like this: (AlphaScreen, mean of runs) > 100 µM (inactive); under setting [1], > 100 µM; (FP, mean of runs) > 95 µM (inactive); under setting [2], > 95 µM; under setting [3], > 95 µM.
Consider `O=[N+]([O-])c1ccc(-n2nnnc2CN2CCCCC2)cc1`, for which the IC50 was > 100 µM (inactive) (AlphaScreen, mean of runs); > 100 µM under setting [1]; > 95 µM (inactive) (FP, mean of runs); > 95 µM under setting [2]; > 95 µM under setting [3].
In the case of `O=C(NCCOC(=O)c1ccccc1)c1ccccc1`, the IC50 result (AlphaScreen, mean of runs) was “inactive”. Also, the IC50 runs as follows: under setting [1], 45.3 µM; (FP, mean of runs) > 95 µM (inactive); under setting [2], > 95 µM; under setting [3], > 95 µM.
Regarding `CCCNC(=O)[C@H]1N2C(=O)c3c(ccc(OC)c3OC)C2SC1(C)C` (stereo not given in full), the IC50 result (AlphaScreen, mean of runs) is “inactive”. Moreover, the IC50 is 62.5 µM under setting [1]; > 95 µM (inactive) (FP, mean of runs); > 95 µM under setting [2]; > 95 µM under setting [3].
As to `C[C@@H](C(=O)Nc1cccnc1)n1c(=O)[nH]c2ccccc2c1=O`, the IC50 (AlphaScreen, mean of runs) is > 100 µM (inactive); the IC50 under setting [1] is > 100 µM; the IC50 (FP, mean of runs) was > 95 µM (inactive); the IC50 under setting [2] is > 95 µM; the IC50 under setting [3] was > 95 µM.
Consider `CCC(=NCCc1ccccc1)c1c(O)n(C2CCCCC2)c(=O)[nH]c1=O`, for which the IC50 (AlphaScreen, mean of runs) was > 100 µM (inactive); the IC50 under setting [1] was > 100 µM; the IC50 (FP, mean of runs) is > 95 µM (inactive); the IC50 under setting [2] is > 95 µM; the IC50 under setting [3] was > 95 µM.
Consider `Cc1ccccc1Nc1nc(N)nc(COC(=O)CC2CC3CCC2C3)n1` (stereo not given), for which the IC50 (AlphaScreen, mean of runs) is > 100 µM (inactive); the IC50 under setting [1] was > 100 µM; the IC50 (FP, mean of runs) was > 95 µM (inactive); the concentration for half-maximal inhibition (IC50) under setting [2] was > 95 µM; the IC50 under setting [3] is > 95 µM.
`O=C(NNc1ncnc2c1cnn2-c1ccc(F)cc1)c1ccco1`: the IC50 by setting is: (AlphaScreen, mean of runs) > 100 µM (inactive); under setting [1], > 100 µM; (FP, mean of runs) > 95 µM (inactive); under setting [2], > 95 µM; under setting [3], > 95 µM.
For the compound `COc1cc(OC)nc(NC(=O)COC(=O)c2cccc(Cl)c2)n1`, the IC50 entry (AlphaScreen, mean of runs) is “inactive”. Besides, the IC50 under setting [1] is 27.1 µM; the IC50 (FP, mean of runs) was > 95 µM (inactive); the IC50 under setting [2] was > 95 µM; the IC50 under setting [3] was > 95 µM.
Turning to `CCOC(=O)Cc1csc(NC(=O)CSc2ncnc3c2cnn3-c2ccccc2Cl)n1`, the IC50 was > 100 µM (inactive) (AlphaScreen, mean of runs); > 100 µM under setting [1]; > 95 µM (inactive) (FP, mean of runs); > 95 µM under setting [2]; > 95 µM under setting [3].
As to `COc1ccc(-c2[nH]ncc2CN(C)CCc2c(C)n[nH]c2C)c(F)c1`, the IC50 (AlphaScreen, mean of runs) is > 100 µM (inactive); the IC50 under setting [1] is > 100 µM; the IC50 (FP, mean of runs) is > 95 µM (inactive); the IC50 under setting [2] is > 95 µM; the IC50 under setting [3] is > 95 µM.
For the compound `Cc1nc(Nc2ccc(S(N)(=O)=O)cc2)oc1C`, the IC50 result (AlphaScreen, mean of runs) is “inactive”. The IC50 was 73.1 µM under setting [1]; > 95 µM (inactive) (FP, mean of runs); > 95 µM under setting [2]; > 95 µM under setting [3].
`Cc1cccc(-c2noc(CSc3ccccc3)n2)c1`: the IC50 (AlphaScreen, mean of runs) was > 100 µM (inactive); the IC50 under setting [1] was > 100 µM; the IC50 (FP, mean of runs) was > 95 µM (inactive); the IC50 under setting [2] was > 95 µM; the IC50 under setting [3] was > 95 µM.
